Data taken from PMC5218480 (PLoS ONE, 2017).

System: MV-4-11 cells
Experiment: Gene expression microarray analysis (Affymetrix PrimeView) and GSEA
Assay type: cell-based, human
Set-up: RFU PODN (11730768_x_at) / Fold change /veh PODN (11730768_x_at) / RFU LINC00158 (11744669_a_at) / Fold change /veh LINC00158 (11744669_a_at) / RFU DUSP10 (11751237_a_at) / Fold change /veh DUSP10 (11751237_a_at) / RFU ID3 (11757404_x_at) / Fold change /veh ID3 (11757404_x_at) / RFU PLEKHG5 (11737974_s_at) / Fold change /veh PLEKHG5 (11737974_s_at) / RFU LRRC4B (11730491_at) / Fold change /veh LRRC4B (11730491_at) / RFU GIMAP4 (11747438_a_at) / Fold change /veh GIMAP4 (11747438_a_at) / RFU KRT8 (11758183_x_at) / Fold change /veh KRT8 (11758183_x_at) / RFU CNN1 (11734310_a_at) / Fold change /veh CNN1 (11734310_a_at) / RFU VPS37D (11726825_at) / Fold change /veh VPS37D (11726825_at) / RFU C10orf10 (11716522_x_at) / Fold change /veh C10orf10 (11716522_x_at) / RFU KIR2DL2 /// KIR2DL4 /// KIR2DL5A /// KIR2DL5B /// KIR2DS1 /// KIR2DS2 /// KIR2DS3 /// KIR2DS4 /// KIR3DL3 /// KIR3DL3 /// KIR3DS1 (11738374_at) / Fold change /veh KIR2DL2 /// KIR2DL4 /// KIR2DL5A /// KIR2DL5B /// KIR2DS1 /// KIR2DS2 /// KIR2DS3 /// KIR2DS4 /// KIR3DL3 /// KIR3DL3 /// KIR3DS1 (11738374_at) / RFU C1QL1 (11718748_at) / Fold change /veh C1QL1 (11718748_at) / RFU TMPRSS4 (11747572_a_at) / Fold change /veh TMPRSS4 (11747572_a_at) / RFU HAMP (11756126_x_at) / Fold change /veh HAMP (11756126_x_at) / RFU RNFT2 (11725882_a_at) / Fold change /veh RNFT2 (11725882_a_at) / RFU NR4A2 (11747474_a_at) / Fold change /veh NR4A2 (11747474_a_at) / RFU ABCC12 (11746883_a_at) / Fold change /veh ABCC12 (11746883_a_at) / RFU TMEM136 (11760407_x_at) / Fold change /veh TMEM136 (11760407_x_at) / RFU CLDN22 /// WWC2 (11732394_at) / Fold change /veh CLDN22 /// WWC2 (11732394_at) / RFU HLA-DPB1 (11760878_x_at) / Fold change /veh HLA-DPB1 (11760878_x_at) / RFU SPINT1 (11716480_a_at) / Fold change /veh SPINT1 (11716480_a_at) / RFU GAP43 (11754022_s_at) / Fold change /veh GAP43 (11754022_s_at) / RFU A4GNT (11735810_at) / Fold change /veh A4GNT (11735810_at) / RFU PRB3 (11715151_x_at) / Fold change /veh PRB3 (11715151_x_at) / RFU TUBB4B (11761932_at) / Fold change /veh TUBB4B (11761932_at) / RFU CAPN14 (11732068_a_at) / Fold change /veh CAPN14 (11732068_a_at) / RFU TMCC2 (11721928_a_at) / Fold change /veh TMCC2 (11721928_a_at) / RFU IRGQ (11745062_a_at) / Fold change /veh IRGQ (11745062_a_at) / RFU FAM174B (11720279_a_at) / Fold change /veh FAM174B (11720279_a_at) / RFU TMPRSS4 (11748680_a_at) / Fold change /veh TMPRSS4 (11748680_a_at) / RFU FAM212B (11763350_a_at) / Fold change /veh FAM212B (11763350_a_at) / RFU PLEKHG5 (11743358_a_at) / Fold change /veh PLEKHG5 (11743358_a_at) / RFU ZSCAN30 (11745921_a_at) / Fold change /veh ZSCAN30 (11745921_a_at) / RFU CMKLR1 (11741424_a_at) / Fold change /veh CMKLR1 (11741424_a_at) / RFU LOC101060620 /// MAPK8IP1 (11723275_at) / Fold change /veh LOC101060620 /// MAPK8IP1 (11723275_at) / RFU SPTSSB (11747773_x_at) / Fold change /veh SPTSSB (11747773_x_at) / RFU PRSS12 (11739890_at) / Fold change /veh PRSS12 (11739890_at) / RFU BIN1 (11741810_x_at) / Fold change /veh BIN1 (11741810_x_at) / RFU WNT11 (11732464_a_at) / Fold change /veh WNT11 (11732464_a_at) / RFU C10orf10 (11716521_a_at) / Fold change /veh C10orf10 (11716521_a_at) / RFU C5orf56 (11738089_at) / Fold change /veh C5orf56 (11738089_at) / RFU CYB561 (11721691_x_at) / Fold change /veh CYB561 (11721691_x_at) / RFU ANKRD19P (11752326_a_at) / Fold change /veh ANKRD19P (11752326_a_at) / RFU OR2T12 /// OR2T33 /// OR2T8 (11738714_s_at) / Fold change /veh OR2T12 /// OR2T33 /// OR2T8 (11738714_s_at) / RFU VCAN (11748164_a_at) / Fold change /veh VCAN (11748164_a_at) / RFU JSRP1 (11732532_at) / Fold change /veh JSRP1 (11732532_at) / RFU KRTAP10-11 (11738290_x_at) / Fold change /veh KRTAP10-11 (11738290_x_at) / RFU MYO3A (11730013_a_at) / Fold change /veh MYO3A (11730013_a_at) / RFU EBF3 (11725865_a_at) / Fold change /veh EBF3 (11725865_a_at) / RFU CAMK2N1 (11719241_x_at) / Fold change /veh CAMK2N1 (11719241_x_at) / RFU C5orf56 (11738088_a_at) / Fold change /veh C5orf56 (11738088_a_at) / RFU OLFML3 (11715873_a_at) / Fold change /veh OLFML3 (11715873_a_at) / RFU LOC100653217 /// NTM (11731650_a_at) / Fold change /veh LOC100653217 /// NTM (11731650_a_at) / RFU MAPK11 (11762145_a_at) / Fold change /veh MAPK11 (11762145_a_at) / RFU FIZ1 (11724087_x_at) / Fold change /veh FIZ1 (11724087_x_at) / RFU OASL (11726364_x_at) / Fold change /veh OASL (11726364_x_at) / RFU SOX15 (11748057_x_at) / Fold change /veh SOX15 (11748057_x_at) / RFU CD79A (11719716_a_at) / Fold change /veh CD79A (11719716_a_at) / RFU HIST1H1D (11736915_at) / Fold change /veh HIST1H1D (11736915_at) / RFU CASKIN2 (11723855_a_at) / Fold change /veh CASKIN2 (11723855_a_at) / RFU LOC730098 (11760151_x_at) / Fold change /veh LOC730098 (11760151_x_at) / RFU OR4N2 (11742367_at) / Fold change /veh OR4N2 (11742367_at) / RFU PRRT2 (11749266_a_at) / Fold change /veh PRRT2 (11749266_a_at) / RFU SNX32 (11753110_a_at) / Fold change /veh SNX32 (11753110_a_at) / RFU CDHR5 (11726645_a_at) / Fold change /veh CDHR5 (11726645_a_at) / RFU RCAN1 (11760418_a_at) / Fold change /veh RCAN1 (11760418_a_at) / RFU FAM167A (11723789_a_at) / Fold change /veh FAM167A (11723789_a_at) / RFU FAM26E (11764081_at) / Fold change /veh FAM26E (11764081_at) / RFU ISYNA1 (11749810_s_at) / Fold change /veh ISYNA1 (11749810_s_at) / RFU ACY1 (11761880_at) / Fold change /veh ACY1 (11761880_at) / RFU 11764098_at / Fold change /veh 11764098_at / RFU SAMD14 (11745864_x_at) / Fold change /veh SAMD14 (11745864_x_at) / RFU NPB (11741838_a_at) / Fold change /veh NPB (11741838_a_at) / RFU TMPRSS6 (11731388_a_at) / Fold change /veh TMPRSS6 (11731388_a_at) / RFU KRTAP10-2 (11738614_at) / Fold change /veh KRTAP10-2 (11738614_at) / RFU ARHGAP8 /// PRR5-ARHGAP8 (11727945_x_at) / Fold change /veh ARHGAP8 /// PRR5-ARHGAP8 (11727945_x_at) / RFU KRTAP5-7 /// NADSYN1 (11734609_at) / Fold change /veh KRTAP5-7 /// NADSYN1 (11734609_at) / RFU RASL12 (11751679_a_at) / Fold change /veh RASL12 (11751679_a_at) / RFU CDKN2B (11736163_a_at) / Fold change /veh CDKN2B (11736163_a_at) / RFU PRF1 (11729649_at) / Fold change /veh PRF1 (11729649_at) / RFU, ZNF638 /// ZNF638-IT1 / Fold change vs veh, ZNF638 /// ZNF638-IT1 / RFU, PANK3 / Fold change vs veh, PANK3 / RFU, SH3YL1 / Fold change vs veh, SH3YL1 / RFU, ZEB2 / Fold change vs veh, ZEB2 / RFU, NRIP1 / Fold change vs veh, NRIP1 / RFU, PTTG1IP / Fold change vs veh, PTTG1IP / RFU, CAPN2 / Fold change vs veh, CAPN2 / RFU, MED14 / Fold change vs veh, MED14 / RFU, SNORA58 / Fold change vs veh, SNORA58 / RFU, C1orf63 / Fold change vs veh, C1orf63 / RFU, LRRFIP1 / Fold change vs veh, LRRFIP1 / RFU, NDUFAF7 / Fold change vs veh, NDUFAF7 / RFU, SLC12A2 / Fold change vs veh, SLC12A2 / RFU, IBTK / Fold change vs veh, IBTK / RFU, ESF1 / Fold change vs veh, ESF1 / Fold change vs veh, TMEM50B / RFU, TAOK1 / Fold change vs veh, TAOK1 / RFU, ACBD3 / Fold change vs veh, ACBD3 / RFU, TMA16 / Fold change vs veh, TMA16 / RFU, RWDD3 / Fold change vs veh, RWDD3 / RFU, BCAT1 / Fold change vs veh, BCAT1 / RFU, EDEM3 / Fold change vs veh, EDEM3 / RFU, TMEM33 / Fold change vs veh, TMEM33 / RFU, WDR75 / Fold change vs veh, WDR75 / RFU, AHCTF1 / Fold change vs veh, AHCTF1 / RFU, TFRC / Fold change vs veh, TFRC / RFU, ZDHHC17 / Fold change vs veh, ZDHHC17 / RFU, NOM1 / Fold change vs veh, NOM1 / RFU, ARL8B / Fold change vs veh, ARL8B / RFU, ZBTB11 / Fold change vs veh, ZBTB11 / RFU, TAMM41 / Fold change vs veh, TAMM41 / RFU, KIAA1704 /// LOC100996395 / Fold change vs veh, KIAA1704 /// LOC100996395 / RFU, ING1 / Fold change vs veh, ING1 / RFU, TRMT61B / Fold change vs veh, TRMT61B / RFU, FUBP3 / Fold change vs veh, FUBP3 / RFU, TP53 / Fold change vs veh, TP53 / RFU, TNKS2 / Fold change vs veh, TNKS2 / RFU, ZFP14 / Fold change vs veh, ZFP14 / RFU, ACTR2 / Fold change vs veh, ACTR2 / RFU, PPP3R1 / Fold change vs veh, PPP3R1 / RFU, PIK3R1 / Fold change vs veh, PIK3R1 / RFU, HNRNPA1 / Fold change vs veh, HNRNPA1 / RFU, RNF170 / Fold change vs veh, RNF170 / RFU, ZNF28 / Fold change vs veh, ZNF28 / RFU, RNGTT / Fold change vs veh, RNGTT / RFU, OGT / Fold change vs veh, OGT / RFU, BRD1 / Fold change vs veh, BRD1 / RFU, MARS / Fold change vs veh, MARS / RFU, ZNF655 / Fold change vs veh, ZNF655 / RFU, FAHD1 / Fold change vs veh, FAHD1 / RFU, BDP1 / Fold change vs veh, BDP1 / RFU, LRRCC1 / Fold change vs veh, LRRCC1 / RFU, ARID1A / Fold change vs veh, ARID1A / RFU, ZNF146 / Fold change vs veh, ZNF146 / RFU, ZNF330 / Fold change vs veh, ZNF330 / RFU, GPN3 / Fold change vs veh, GPN3 / RFU, C9orf123 / Fold change vs veh, C9orf123 / RFU, N4BP2L2 / Fold change vs veh, N4BP2L2 / RFU, ARFIP1 / Fold change vs veh, ARFIP1 / RFU, FAM179B / Fold change vs veh, FAM179B / RFU, BCL10 / Fold change vs veh, BCL10 / RFU, UHRF1BP1L / Fold change vs veh, UHRF1BP1L / RFU, BET1 / Fold change vs veh, BET1 / RFU, CNOT2 / Fold change vs veh, CNOT2 / RFU, ZNF268 / Fold change vs veh, ZNF268 / Fold change vs veh, ZNF507 / RFU, DGCR2 / Fold change vs veh, DGCR2 / RFU, WDSUB1 / Fold change vs veh, WDSUB1 / Fold change vs veh, HSP90B1 /// MIR3652 / RFU, ADSS / Fold change vs veh, ADSS / RFU, GK / Fold change vs veh, GK / RFU, ZNF148 / Fold change vs veh, ZNF148 / RFU, TAF9 / Fold change vs veh, TAF9 / RFU, SLC1A5 / Fold change vs veh, SLC1A5 / RFU, SLMO2 / Fold change vs veh, SLMO2 / RFU, ABCC4 / Fold change vs veh, ABCC4 / RFU, LOC101060439 /// RAP1B / Fold change vs veh, LOC101060439 /// RAP1B / RFU, RFX7 / Fold change vs veh, RFX7 / RFU, GTPBP10 / Fold change vs veh, GTPBP10 / RFU, CNEP1R1 / Fold change vs veh, CNEP1R1 / RFU, BIVM-ERCC5 /// ERCC5 / Fold change vs veh, BIVM-ERCC5 /// ERCC5 / RFU, ILF3 / Fold change vs veh, ILF3 / RFU 11762660_at / Fold change /veh 11762660_at / RFU VCAN (11757783_s_at) / Fold change /veh VCAN (11757783_s_at) / RFU DDX43 (11728927_at) / Fold change /veh DDX43 (11728927_at) / RFU KRT8 (11758188_x_at) / Fold change /veh KRT8 (11758188_x_at) / RFU NKD1 (11759106_at) / Fold change /veh NKD1 (11759106_at) / RFU SRD5A1 (11742802_a_at) / Fold change /veh SRD5A1 (11742802_a_at) / RFU TPSAB1 /// TPSB2 (11721975_s_at) / Fold change /veh TPSAB1 /// TPSB2 (11721975_s_at) / RFU GSTM3 (11746129_a_at) / Fold change /veh GSTM3 (11746129_a_at) / RFU IL23R (11737362_x_at) / Fold change /veh IL23R (11737362_x_at) / RFU TMEM51 (11727254_a_at) / Fold change /veh TMEM51 (11727254_a_at) / RFU PIWIL2 (11732686_x_at) / Fold change /veh PIWIL2 (11732686_x_at) / RFU ORM1 (11744905_x_at) / Fold change /veh ORM1 (11744905_x_at) / RFU CCDC152 (11743942_at) / Fold change /veh CCDC152 (11743942_at) / RFU ECM1 (11717891_a_at) / Fold change /veh ECM1 (11717891_a_at) / RFU IL23R (11748794_a_at) / Fold change /veh IL23R (11748794_a_at) / RFU TNFAIP8L3 (11732012_x_at) / Fold change /veh TNFAIP8L3 (11732012_x_at) / RFU MBOAT4 (11741988_at) / Fold change /veh MBOAT4 (11741988_at) / RFU 11764193_at / Fold change /veh 11764193_at / RFU TMEM53 (11763286_at) / Fold change /veh TMEM53 (11763286_at) / RFU MAGEB2 (11727129_at) / Fold change /veh MAGEB2 (11727129_at) / RFU TMEM200A (11744735_a_at) / Fold change /veh TMEM200A (11744735_a_at) / RFU CCDC152 (11751479_a_at) / Fold change /veh CCDC152 (11751479_a_at) / RFU FAM211A (11726209_a_at) / Fold change /veh FAM211A (11726209_a_at) / RFU RGS16 (11746705_a_at) / Fold change /veh RGS16 (11746705_a_at) / RFU VCAN (11755009_s_at) / Fold change /veh VCAN (11755009_s_at) / RFU RHOB (11743442_s_at) / Fold change /veh RHOB (11743442_s_at) / RFU RGS16 (11720943_a_at) / Fold change /veh RGS16 (11720943_a_at) / RFU RGS16 (11720944_at) / Fold change /veh RGS16 (11720944_at) / RFU, VPS4B / Fold change vs veh, VPS4B / RFU, CREB1 / Fold change vs veh, CREB1 / RFU, DNAJC13 / Fold change vs veh, DNAJC13 / RFU, GNAQ / Fold change vs veh, GNAQ / RFU, CDK5R1 / Fold change vs veh, CDK5R1 / RFU, ZRANB3 / Fold change vs veh, ZRANB3 / RFU, CUL4A / Fold change vs veh, CUL4A / RFU, CCNY / Fold change vs veh, CCNY / RFU, UFL1 / Fold change vs veh, UFL1 / RFU, COG3 / Fold change vs veh, COG3 / RFU, DIAPH2 / Fold change vs veh, DIAPH2 / RFU, SKA2 / Fold change vs veh, SKA2 / RFU, AFF3 / Fold change vs veh, AFF3 / RFU, LMF1 / Fold change vs veh, LMF1 / RFU, IPO11 / Fold change vs veh, IPO11 / RFU, DFFB / Fold change vs veh, DFFB / RFU, FOXP1 / Fold change vs veh, FOXP1 / RFU, CARD8 / Fold change vs veh, CARD8 / RFU, STRN3 / Fold change vs veh, STRN3 / RFU, ADK / Fold change vs veh, ADK / RFU, RASSF2 / Fold change vs veh, RASSF2 / RFU, WIPF1 / Fold change vs veh, WIPF1 / RFU, LARP1B / Fold change vs veh, LARP1B / RFU, RASA1 / Fold change vs veh, RASA1 / RFU, RB1 / Fold change vs veh, RB1 / RFU, PPFIA1 / Fold change vs veh, PPFIA1 / RFU, MAT2A / Fold change vs veh, MAT2A / RFU, CCT5 / Fold change vs veh, CCT5 / RFU, WDR92 / Fold change vs veh, WDR92 / RFU, CUX1 / Fold change vs veh, CUX1 / RFU, TTC7A / Fold change vs veh, TTC7A / RFU, TMEM135 / Fold change vs veh, TMEM135 / RFU, DEPTOR / Fold change vs veh, DEPTOR / RFU, CPM / Fold change vs veh, CPM / RFU, DNAJB6 / Fold change vs veh, DNAJB6 / RFU, CACNA2D3 / Fold change vs veh, CACNA2D3 / RFU, DTX4 / Fold change vs veh, DTX4 / RFU, TFCP2 / Fold change vs veh, TFCP2 / RFU, GMCL1 /// GMCL1P1 / Fold change vs veh, GMCL1 /// GMCL1P1 / RFU, AEBP2 / Fold change vs veh, AEBP2 / RFU, SNHG1 /// SNORD22 /// SNORD25 /// SNORD26 /// SNORD27 /// SNORD28 /// SNORD29 /// SNORD31 / Fold change vs veh, SNHG1 /// SNORD22 /// SNORD25 /// SNORD26 /// SNORD27 /// SNORD28 /// SNORD29 /// SNORD31 / Fold change (Aza/veh), C12orf56 (ProbeSet 11735607_a_at) / Fold change (ACY-1035/veh), C12orf56 (ProbeSet 11735607_a_at) / Fold change (Aza/veh), FGFR1OP (ProbeSet 11751329_s_at) / Fold change (ACY-1035/veh), FGFR1OP (ProbeSet 11751329_s_at) / Fold change (Aza/veh), VPS36 (ProbeSet 11739960_a_at) / Fold change (ACY-1035/veh), VPS36 (ProbeSet 11739960_a_at) / RFU SYPL1 (11715823_x_at) / Fold change /veh SYPL1 (11715823_x_at) / RFU IGFBP7 (11715501_s_at) / Fold change /veh IGFBP7 (11715501_s_at) / RFU REEP3 (11722064_at) / Fold change /veh REEP3 (11722064_at) / RFU IGLL1 (11728026_x_at) / Fold change /veh IGLL1 (11728026_x_at): dose or concentration left out as unconfirmed
Conditions: ProbeSet 11731461_x_at; LIST D

SMILES: Nc1ccc(-c2cccs2)cc1NC(=O)c1ccc2c(c1)cc(C1CC1)n2CCN1CCOCC1 [ACY-1035]
- Fold change vs veh, CPM: 0.83
